“Also recorded” adds a separate entry of the source.
How the values were obtained:
SKRC52 cells = assay: Fluorescent confocal microscopy of FBSA-PEG2-FITC conjugate in SKRC52 cells; type: cell-based, Human; conditions: 25 nM conjugate, 1 hour at 37° C.; competition with 100-fold excess Compound 3; FIG. 1
Protocol: Fluorescent Microscopy of FBSA-PEG2-FITC Conjugate, Conjugate 5.
Metastatic Human Renal Cell Carcinoma (SKRC52) cells (10^5) were seeded into chambered coverglass plates and allowed to grow to confluence over 24 hours (hr). Spent medium was replaced with 0.5 mL of fresh medium containing 10% fetal bovine serum albumin and 25 nM concentration of the FITC conjugate, Conjugate 5, alone or the dye conjugate plus 100-fold excess CAIX inhibitor (Compound 3, 3-((2-(cyclooctylamino)-3,5,6-trifluoro-4-sulfamoylphenyl)sulfonyl)propanoic acid). After incubation for 1 hour at 37° C., cells were rinsed twice with 1 mL of media to remove unbound fluorescence and 0.5 ml of fresh incubation medium was added to the wells. Images were acquired using a confocal microscopy (FV 1000, Olympus).

CAIX [1] = target: T1, CAIX (Homo sapiens, UniProt Q16790); assay: Binding affinity of CAIX FITC conjugates by flow cytometry in HT-29 cells; design: expressed in transfected cells; conditions: FIG. 4
Protocol: (§1) General Procedure for Binding Affinity Determination of CAIX FITC Conjugates
(§2) HEK293 transfected with CAIX, SKRC52, HT29, or A549 cells (0.25×10^6) were placed into 1.5 ml centrifuge tubes with 0.3 mL of fresh DMEM medium containing increasing concentrations of CAIX FITC conjugates in the presence or absence of 100-fold excess CAIX inhibitor (Compound 3, 3-((2-(cyclooctylamino)-3,5,6-trifluoro-4-sulfamoylphenyl)sulfonyl)propanoic acid. After incubating for 1 h at 25° C., cells were rinsed twice with 1 mL of medium. The cells were transferred into a 96-well plate and the mean florescence intensity (MFI) was read using flow cytometry (BD Accuri C6, BD Biosciences). Apparent KD was calculated by plotting MFI versus the concentration of the FITC conjugates using GraphPad Prism 4. For hypoxia experiments, cells were incubated under an atmosphere containing 1% oxygen, 5% carbon dioxide, and 94% nitrogen for 24-48 hours in a hypoxia chamber.

CAIX [2] = target: T1, CAIX; assay: Binding affinity of CAIX FITC conjugates by flow cytometry in A549 cells; design: expressed in transfected cells; conditions: FIG. 7
Protocol: as §1, §2

CAIX [3] = target: T1, CAIX; assay: Binding affinity of CAIX FITC conjugates by flow cytometry in SKRC52 cells; design: endogenous in cells; host or cells: SKRC52
Text: as §1

CAIX [4] = target: T1, CAIX; assay: Binding affinity of CAIX FITC conjugates by flow cytometry in HEK293 transfected with CAIX; design: expressed in transfected cells; host or cells: HEK293; conditions: HEK293-CA9 cells; FIG. 2 / FIG. 5; apparent KD from MFI, 1 h at 25° C.; read-out: KD
Text: as §1

HT-29 cells = type: cell-based; conditions: 2 hr incubation, then 66 hr in fresh medium, FIG. 8, read-out: IC50 (3H-thymidine incorporation)
Protocol: General Procedure for In Vitro Cytotoxicity Determination by ^3H-Thymidine Uptake Assays
HT-29 cells were seeded on amine-coated 24-well plates and allowed to form monolayers. The spent medium in each well was replaced with fresh medium (0.5 mL) containing various concentrations of Conjugate 12. After incubating for 2 hr at 37° C., cells were rinsed three times with fresh medium and then incubated an additional 66 hr at 37° C. in fresh medium. Spent medium in each well was again replaced with fresh medium (0.5 mL) containing ^3H-thymidine (1 μCi/ml) and the cells were incubated for an additional 4 hr. After washing the cells three times with medium, they were dissolved in 0.5 mL of 0.25 M NaOH. Thymidine incorporation was then determined by counting cell-associated radioactivity using a scintillation counter (PACKARD, PACKARD INSTRUMENT COMPANY). The IC50 value was derived from a plot of the percent of ^3H-thymidine incorporation versus log concentration using Graph Pad Prism 4 and TABLECURVE 2D software.

HT-29 xenografts = assay: In vivo efficacy of tubulysin conjugates in HT-29 xenograft tumors; design: species or system mice
Protocol: (§3) Athymic nu/nu mice were purchased from Harlan Laboratories (ENVIGO), housed in a sterile environment on a standard 12 hour light-dark cycle and maintained on normal rodent chow. All animal procedures were approved by the PURDUE Animal Care and Use Committee in accordance with National Institutes of Health guidelines.
In Vivo Efficacy of Tubulysin Conjugate 12 in HT29 Xenograft Tumors.
Cells, HT-29 cells (4.25×10^6) were subcutaneously injected into the shoulders of 5-6 week old female nu/nu mice. Tumors were measured in two perpendicular directions thrice weekly with vernier calipers and their volumes were calculated as 0.5×L×W^2, where L is the longest axis (in millimeters), and W is the axis perpendicular to L (in millimeters). Dosing of Conjugate 12 was initiated when the subcutaneous tumors reached ˜100-275 mm^3 in volume. Dosing solutions were prepared in saline and filtered through a 0.22 μm filter. Solutions were administered via tail vein injection or intraperitoneally. […] Injections were given every two days and the mice were weighed concurrently. […]

A549 xenografts = assay: In vivo efficacy of Conjugate 14 in A549 xenografts; design: species or system mice; conditions: 1.25 umole/kg TIW for three weeks, FIG. 17
Protocol: as §3
Cells, HT-29 cells (4.25×10^6) were subcutaneously injected into the shoulders of 5-6 week old female nu/nu mice. Tumors were measured in two perpendicular directions thrice weekly with vernier calipers and their volumes were calculated as 0.5×L×W^2, where L is the longest axis (in millimeters), and W is the axis perpendicular to L (in millimeters). Dosing of Conjugate 12 was initiated when the subcutaneous tumors reached ˜100-275 mm^3 in volume. Dosing solutions were prepared in saline and filtered through a 0.22 μm filter. Solutions were administered via tail vein injection or intraperitoneally. Each mouse received 2 μmol/kg Conjugate 12 per injection. Injections were given every two days and the mice were weighed concurrently.
Similar experiments were performed using Conjugate 14 with A549 cells instead of HT-29 cells (FIGS. 17 and 18).

CAIX [5] = target: T1, CAIX; assay: In vitro binding affinity of radiolabeled Conjugate 17 in A549 cells (gamma counting); design: expressed in transfected cells; conditions: 64Cu-radiolabeled, 1 h at 25° C., FIG. 10
Protocol: (§4) In Vitro Binding Affinity of Radiolabeled Conjugate 17
(§5) SKRC52, HT29, A549 cells (˜0.25×10^6) were seeded in a 24-well plate and allowed to grow overnight. Fresh medium containing increasing concentrations of radiolabeled Conjugate 17, as prepared in Example 17, in the presence or absence of 100-fold excess FBSA competition compound was added. All concentrations were examined in duplicate or triplicate. After incubating for 1 h at 25° C., cells were washed with PBS (3×0.5 mL). To each well was added 0.5 M NaOH. After 10 min, 0.45 mL of the NaOH was removed and the radioactivity was measured with a γ-counter (Packard, Packard Instrument Company). The apparent binding affinity was calculated by plotting the bound radioactivity versus the concentration of the radiolabeled conjugate with GraphPad Prism 4.

CAIX [6] = target: T1, CAIX; assay: In vitro binding affinity of radiolabeled Conjugate 17 in SKRC52 cells (gamma counting); design: endogenous in cells; host or cells: SKRC52
Protocol: as §4, §5

NS(=O)(=O)c1c(F)c(F)c(S(=O)(=O)CCC(=O)NCCOCCOCCC(=O)NC(CSC2CC(=O)N(c3ccc(-c4c5ccc(=O)cc-5oc5cc(O)ccc45)c(C(=O)O)c3)C2=O)C(=O)O)c(NC2CCCCCCC2)c1F (centres unmarked) [Conjugate 5, 2-(((1-(3-carboxy-4-(6-hydroxy-3-oxo-3H-xanthen-9-yl)phenyl)-2,5-dioxopyrrolidin-3-yl)thio)methyl)-16-((2-(cyclooctylamino)-3,5,6-trifluoro-4-sulfamoylphenyl)sulfonyl)-4,14-dioxo-7,10-dioxa-3,13-diazahexadecanoic acid]
cell binding by confocal microscopy, alone and with excess CAIX inhibitor (SKRC52 cells): bound the cells and were competed in the presence of excess unconjugated inhibitor
binding with competition by unconjugated inhibitor (CAIX [1]; 100-fold excess unconjugated inhibitor (Compound 3)): bound the cells and competed in the presence of 100-fold excess unconjugated inhibitor
Kd (CAIX [1]): 4.55 nM
Kd (CAIX [2]): 6.04 nM
Kd (CAIX [3]; SKRC52 cells under hypoxia (1% oxygen, 24-48 hours), FIG. 6, read-out: KD, Hypoxia SKRC52): 4.72 nM
Kd (CAIX [3]; SKRC52 cells without hypoxia, FIG. 6, read-out: binding affinity, Normoxia SKRC52): 4.57 nM
Kd (CAIX [3]; SKRC52 cells, FIG. 3, apparent KD from MFI, 1 h at 25° C., read-out: KD): 1.28 nM
Kd (CAIX [4]): 17.9 nM

CCCC(=O)OCN(C(=O)[C@@H](NC(=O)C1CCCCN1C)[C@@H](C)CC)[C@H](C[C@@H](OC(C)=O)c1nc(C(=O)N[C@@H](Cc2ccc(O)cc2)C[C@H](C)C(=O)NNC(=O)OCCSSC[C@H](NC(=O)[C@H](CC(=O)O)NC(=O)[C@@H](N)CNC(=O)CCOCCOCCNC(=O)CCS(=O)(=O)c2c(F)c(F)c(S(N)(=O)=O)c(F)c2NC2CCCCCCC2)C(=O)O)cs1)C(C)C (some centres unmarked) [Conjugate 12]
IC50 (HT-29 cells): 5.04 nM
gross toxicity (HT-29 xenografts; HT-29 xenograft mice, 2 μmol/kg per injection): no gross toxicity was observed
loss of weight (HT-29 xenografts; HT-29 xenograft mice, 2 μmol/kg per injection, FIG. 12): less than 10%
body mass loss (HT-29 xenografts; HT-29 xenograft mice, 2 umol/kg, at 6 days into the treatment, FIG. 12): not more than 10%
tumor response (HT-29 xenografts; HT-29 xenografts, 2 μmol/kg per injection, every two days (TIW), n=3, FIG. 11): tumors shrinking; also recorded: halted tumor growth and the xenograft is in the process of shrinking

CCCC(=O)OCN(C(=O)[C@@H](NC(=O)C1CCCCN1C)[C@@H](C)CC)[C@H](C[C@@H](OC(C)=O)c1nc(C(=O)N[C@@H](Cc2ccc(O)cc2)C[C@H](C)C(=O)NNC(=O)OCCSSC[C@H](NC(=O)[C@H](CC(=O)O)NC(=O)[C@@H](N)CNC(=O)C(CC(=O)O)NC(=O)C(CCCNC(=N)N)NC(=O)C(CC(=O)O)NC(=O)CCOCCOCCNC(=O)CCS(=O)(=O)c2c(F)c(F)c(S(N)(=O)=O)c(F)c2NC2CCCCCCC2)C(=O)O)cs1)C(C)C (some centres unmarked) [Conjugate 14]
whole body mass, other doses (HT-29 xenografts; HT-29 xenograft mice, 1.5, 1, 0.5, 0.25 μmole/kg, n=1 each, FIG. 14): acceptable body mass profiles
whole body mass, highest dose (HT-29 xenografts; HT-29 xenograft mice, highest dose (2 μmole/kg), n=1, FIG. 14): loss of body mass
tumor reemergence, starting day (HT-29 xenografts; HT-29 xenografts, 1 umole/kg, n=1, FIG. 13): 16 days
tumor response (HT-29 xenografts; HT-29 xenografts, 1.25 umole/kg TIW for three weeks, n=5, FIG. 15): stable tumor regression and stable disease until treatment cessation
tumor response, dose escalation (HT-29 xenografts; HT-29 xenografts, doses 2, 1.5, and 1 umole/kg, n=1 for each dose, FIG. 13): shrank tumors
tumor response (A549 xenografts): stable tumor regression and stable disease until treatment cessation

NS(=O)(=O)c1c(F)c(F)c(S(=O)(=O)CCC(=O)NCCOCCOCCC(=O)NCCNC(=O)CCC(C(=O)O)N2CCN(CC(=O)O)CCN(CC(=O)O)CC2)c(NC2CCCCCCC2)c1F (centres unmarked) [radiolabeled Conjugate 17]
Kd (CAIX [5]): 6.04 nM
bound radioactivity in competition controls (CAIX [6]; SKRC52 and A549 cells, 100-fold excess of unlabeled FBSA-COOH): significantly less bound radioactivity
concentration reaching saturation of binding (CAIX [6]; SKRC52 and A549 cells, FIGS. 9 and 10): approximately 75 nM
Kd (CAIX [6]; SKRC52 cells, 64Cu-radiolabeled, 1 h at 25° C., FIG. 9): 5.87 nM

— US11524082B2, “FBSA-based therapeutic and radioimaging conjugates targeting carbonic anhydrase positive cancers” (priority 2017, dated 2022)
